Data reported in ChEMBL document CHEMBL1153695, “Asymmetrical diaromatic guanidinium/2-aminoimidazolinium derivatives: synthesis and DNA affinity” (J Med Chem, 2009).

Legend:
Assay type in all cases: nucleic-acid assay
Nucleic Acid [1] = assay: Binding affinity to Salmon sperm DNA in phosphate buffer assessed as change in melting temperature; conditions: Oncorhynchus
Nucleic Acid [2] = assay: Binding affinity to Poly(dA.dT)2 DNA in phosphate buffer assessed as change in melting temperature
Nucleic Acid [3] = assay: Binding affinity to Poly(dA).Poly(dT) DNA in MES buffer assessed as change in melting temperature

Question: How did the ΔTm (Nucleic Acid [1]) turn out when `Nc1ccc(Sc2ccc(N=C3NCCN3)cc2)cc1` was run?
Answer: 0 °C

Question: Which ΔTm (Nucleic Acid [1]) does the source give for `N=C(N)Nc1ccc(CCc2ccc(N)cc2)cc1` here?
Answer: 0 °C

Question: `Nc1ccc(Oc2ccc(N=C3NCCN3)cc2)cc1` was tested. Which ΔTm (Nucleic Acid [1]) did it give?
Answer: 0 °C

Question: For `N=C(N)Nc1ccc(Sc2ccc(N)cc2)cc1`, which ΔTm (Nucleic Acid [1]) is on record?
Answer: 2 °C

Question: With `Nc1ccc(Nc2ccc(N=C3NCCN3)cc2)cc1` as the compound, how does the ΔTm (Nucleic Acid [1]) read?
Answer: 2 °C

Question: `N=C(N)Oc1ccc(Oc2ccc(OC(=N)N)cc2)cc1` was tested. Which ΔTm (Nucleic Acid [1]) did it give?
Answer: 6 °C

Question: How did the ΔTm (Nucleic Acid [1]) turn out when `N=C(N)Oc1ccc(Cc2ccc(OC(=N)N)cc2)cc1` was run?
Answer: 4 °C

Question: Which ΔTm (Nucleic Acid [1]) does the source give for `N=C(N)Nc1ccc(N2CCN(c3ccc(N)cc3)CC2)cc1` here?
Answer: 2 °C

Question: Which ΔTm (Nucleic Acid [1]) does the source give for `N=C(N)Nc1ccc(Nc2ccc(N)cc2)cc1` here?
Answer: 2 °C

Question: With `N=C(N)Nc1ccc(CCc2ccc(N=C3NCCN3)cc2)cc1` as the compound, how does the ΔTm (Nucleic Acid [1]) read?
Answer: 8 °C

Question: What about the ΔTm (Nucleic Acid [2]) of the same compound?
Answer: 16 °C

Question: What about the ΔTm (Nucleic Acid [3]) of the same compound?
Answer: 29 °C

Question: With `N=C(N)Nc1ccc(Cc2ccc(N)cc2)cc1` as the compound, how does the ΔTm (Nucleic Acid [1]) read?
Answer: 3 °C

Question: `N=C(N)Nc1ccc(C(=O)c2ccc(N=C3NCCN3)cc2)cc1` was tested. Which ΔTm (Nucleic Acid [1]) did it give?
Answer: 8 °C

Question: What about the ΔTm (Nucleic Acid [2]) of the same compound?
Answer: 15 °C

Question: And the ΔTm (Nucleic Acid [3])?
Answer: 32 °C

Question: For `N=C(N)Nc1ccc(NC(=O)Nc2ccc(N=C3NCCN3)cc2)cc1`, which ΔTm (Nucleic Acid [1]) is on record?
Answer: 11.5 °C

Question: What about the ΔTm (Nucleic Acid [2]) of the same compound?
Answer: 14 °C

Question: And the ΔTm (Nucleic Acid [3])?
Answer: 30 °C

Question: How did the ΔTm (Nucleic Acid [1]) turn out when `N=C(N)Nc1ccc(Oc2ccc(N)cc2)cc1` was run?
Answer: 2 °C

Question: Which ΔTm (Nucleic Acid [1]) does the source give for `Nc1ccc(Cc2ccc(N=C3NCCN3)cc2)cc1` here?
Answer: 3 °C

Question: For `N=C(N)Oc1ccc(Oc2ccc(O)cc2)cc1`, which ΔTm (Nucleic Acid [1]) is on record?
Answer: 4 °C

Question: How did the ΔTm (Nucleic Acid [1]) turn out when `Nc1ccc(CCc2ccc(N=C3NCCN3)cc2)cc1` was run?
Answer: 0 °C

Question: With `N=C(N)Oc1ccc(Sc2ccc(O)cc2)cc1` as the compound, how does the ΔTm (Nucleic Acid [1]) read?
Answer: 2 °C

Question: Which ΔTm (Nucleic Acid [1]) does the source give for `N=C(N)Nc1ccc(Nc2ccc(N=C3NCCN3)cc2)cc1` here?
Answer: 12 °C

Question: And the ΔTm (Nucleic Acid [2])?
Answer: 17.5 °C

Question: And the ΔTm (Nucleic Acid [3])?
Answer: 35.1 °C

Question: How did the ΔTm (Nucleic Acid [1]) turn out when `N=C(N)Nc1ccc(N2CCN(c3ccc(N=C4NCCN4)cc3)CC2)cc1` was run?
Answer: 9 °C

Question: What about the ΔTm (Nucleic Acid [2]) of the same compound?
Answer: 15 °C

Question: And the ΔTm (Nucleic Acid [3])?
Answer: 31.1 °C

Question: Which results are given for `N=C(N)Nc1ccc(Oc2ccc(N=C3NCCN3)cc2)cc1`?
Answer: ΔTm (Nucleic Acid [1]): 7 °C; ΔTm (Nucleic Acid [2]): 10 °C; ΔTm (Nucleic Acid [3]): 25.3 °C

Question: `Nc1ccc(NC(=O)Nc2ccc(N=C3NCCN3)cc2)cc1` was tested. Which ΔTm (Nucleic Acid [1]) did it give?
Answer: 4 °C

Question: How did the ΔTm (Nucleic Acid [1]) turn out when `N=C(N)Nc1ccc(NC(=O)Nc2ccc(N)cc2)cc1` was run?
Answer: 2 °C

Question: With `Cn1cc(NC(=O)c2cc(NC(=O)CNC(=N)N)cn2C)cc1C(=O)NCCC(=N)N` as the compound, how does the ΔTm (Nucleic Acid [2]) read?
Answer: 39 °C

Question: What does the source list for `N=C(N)Nc1ccc(Cc2ccc(N=C3NCCN3)cc2)cc1`?
Answer: ΔTm (Nucleic Acid [1]): 6 °C; ΔTm (Nucleic Acid [2]): 6 °C; ΔTm (Nucleic Acid [3]): 17.2 °C

Question: With `N=C(N)Nc1ccc(C(=O)c2ccc(N)cc2)cc1` as the compound, how does the ΔTm (Nucleic Acid [1]) read?
Answer: 0 °C

Question: For `N=C(N)Oc1ccc(Sc2ccc(OC(=N)N)cc2)cc1`, which ΔTm (Nucleic Acid [1]) is on record?
Answer: 5 °C

Question: For `N=C(N)Oc1ccc(Cc2ccc(O)cc2)cc1`, which ΔTm (Nucleic Acid [1]) is on record?
Answer: 2 °C

Question: For `Nc1ccc(N2CCN(c3ccc(N=C4NCCN4)cc3)CC2)cc1`, which ΔTm (Nucleic Acid [1]) is on record?
Answer: 1 °C

Question: How did the ΔTm (Nucleic Acid [1]) turn out when `N=C(N)Nc1ccc(Sc2ccc(N=C3NCCN3)cc2)cc1` was run?
Answer: 7 °C

Question: And the ΔTm (Nucleic Acid [2])?
Answer: 9 °C

Question: What about the ΔTm (Nucleic Acid [3]) of the same compound?
Answer: 23 °C
